Reference: a compilation of properties of binary mixtures (doi:10.1007/s10953-021-01067-6)

Assay: xn = mol fraction of the nth substance listed
Conditions: 101.3 kPa

CCCCCC[NH2+]CCN.O=S(=O)([N-]S(=O)(=O)C(F)(F)F)C(F)(F)F + O
Conditions	electrical conductivity [S/m]	viscosity [mPa·s]
303.15 K, x1 = 0.401	0.251	51.4
303.15 K, x1 = 0.4387	0.209	66.6
303.15 K, x1 = 0.5021	0.135	104
303.15 K, x1 = 0.5762	0.066	117
303.15 K, x1 = 0.6827	0.0619	168
303.15 K, x1 = 0.8153	0.0416	226
303.15 K, x1 = 0.8939	0.0284	260
308.15 K, x1 = 0.401	0.324	40.1
308.15 K, x1 = 0.4387	0.267	51
308.15 K, x1 = 0.5762	0.0972	86.6
308.15 K, x1 = 0.6827	0.085	131
308.15 K, x1 = 0.8153	0.0537	160
308.15 K, x1 = 0.8939	0.0432	179
313.15 K, x1 = 0.401	0.396	31.8
313.15 K, x1 = 0.4387	0.328	39.8
313.15 K, x1 = 0.5021	0.221	59.1
313.15 K, x1 = 0.5762	0.138	65.5
313.15 K, x1 = 0.6827	0.11	97.4
313.15 K, x1 = 0.8153	0.0733	118
313.15 K, x1 = 0.8939	0.056	131
318.15 K, x1 = 0.401	0.485	25.7
318.15 K, x1 = 0.4387	0.409	31.6
318.15 K, x1 = 0.5021	0.278	45.9
318.15 K, x1 = 0.6827	0.144	74.1
318.15 K, x1 = 0.8153	0.0987	88.2
318.15 K, x1 = 0.8939	0.075	95.9
323.15 K, x1 = 0.4387	0.502	25.6
323.15 K, x1 = 0.5021	0.34	36.3
323.15 K, x1 = 0.5762	0.232	39.6
323.15 K, x1 = 0.6827	0.184	57.4
323.15 K, x1 = 0.8153	0.13	65.4
323.15 K, x1 = 0.8939	0.101	72.1
328.15 K, x1 = 0.401	0.71	17.7
328.15 K, x1 = 0.4387	0.603	20.9
328.15 K, x1 = 0.5762	0.288	31.6
328.15 K, x1 = 0.8153	0.166	50.6
328.15 K, x1 = 0.8939	0.13	55.6
333.15 K, x1 = 0.401	0.838	15
333.15 K, x1 = 0.4387	0.727	17.4
333.15 K, x1 = 0.5021	0.505	23.8
333.15 K, x1 = 0.5762	0.372	25.7
333.15 K, x1 = 0.6827	0.293	35.8
333.15 K, x1 = 0.8153	0.21	39.8
333.15 K, x1 = 0.8939	0.169	43.6
338.15 K, x1 = 0.401	0.973	12.8
338.15 K, x1 = 0.4387	0.858	14.7
338.15 K, x1 = 0.5762	0.441	21.2
338.15 K, x1 = 0.6827	0.359	29.2
338.15 K, x1 = 0.8153	0.263	31.8
338.15 K, x1 = 0.8939	0.203	36.5
343.15 K, x1 = 0.401	1.13	11.1
343.15 K, x1 = 0.4387	1.01	11.9
343.15 K, x1 = 0.5021	0.705	16.5
343.15 K, x1 = 0.5762	0.521	17.7
343.15 K, x1 = 0.8939	0.255	28.2
348.15 K, x1 = 0.4387	1.12	10.3
348.15 K, x1 = 0.5021	0.808	14
348.15 K, x1 = 0.6827	0.503	20.5
348.15 K, x1 = 0.8153	0.399	21.4
348.15 K, x1 = 0.8939	0.31	24.4
353.15 K, x1 = 0.401	1.47	8.8
353.15 K, x1 = 0.4387	1.34	9
353.15 K, x1 = 0.5021	0.908	12
353.15 K, x1 = 0.6827	0.601	16.9
353.15 K, x1 = 0.8153	0.37	17
353.15 K, x1 = 0.8939	–	20.7
